For six molecules, IC50 results are on record in BindingDB's records for doi:10.1021/cb500143h (Tottori University , Yonago 683-8503, Japan, 2014).

This experiment has as its target T1, Alpha-galactosidase A (Homo sapiens, UniProt P06280).
T1 sequence (P06280 whole entry): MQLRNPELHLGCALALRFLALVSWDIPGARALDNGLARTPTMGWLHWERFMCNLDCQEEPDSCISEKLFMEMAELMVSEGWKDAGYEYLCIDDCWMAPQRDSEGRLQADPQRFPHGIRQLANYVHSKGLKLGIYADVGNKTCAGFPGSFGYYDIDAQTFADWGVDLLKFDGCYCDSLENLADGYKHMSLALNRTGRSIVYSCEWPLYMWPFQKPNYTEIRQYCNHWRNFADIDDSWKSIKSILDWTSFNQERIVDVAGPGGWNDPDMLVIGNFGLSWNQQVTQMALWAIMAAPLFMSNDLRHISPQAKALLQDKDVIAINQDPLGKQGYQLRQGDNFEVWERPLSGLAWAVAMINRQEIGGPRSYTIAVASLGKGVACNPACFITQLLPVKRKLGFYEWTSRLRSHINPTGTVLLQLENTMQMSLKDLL
Briefly: α-Gal A Assay.

With `OC[C@@H]1[C@H](O)[C@H](O)[C@@H](O)CN1C(=S)NCc1ccccc1` [DGJ-BnT], the IC50 (commonly the point on the concentration scale where inhibition reaches its midpoint) came to 20300 nM (pH 5) and 4410 nM (pH 7).
With `OC[C@@H]1[C@H](O)[C@H](O)[C@@H](O)CN1C(=S)Nc1cccc2ccccc12` [DGJ-NphT], the half-inhibitory concentration (IC50) by setting is: (pH 5) 1600 nM; (pH 7) 370 nM.
`OC[C@@H]1[C@H](O)[C@H](O)[C@@H](O)CN1C(=S)Nc1ccc(F)cc1` [DGJ-pF PhT]: the half-inhibitory concentration (IC50) reads like this: (pH 5) 340 nM; (pH 7) 43 nM.
On the same counts, the results for `COc1ccc(NC(=S)N2C[C@H](O)[C@@H](O)[C@@H](O)[C@H]2CO)cc1` [DGJ-pMe OPhT] are 74 nM and 16 nM.
For `CSc1ccc(NC(=S)N2C[C@H](O)[C@@H](O)[C@@H](O)[C@H]2CO)cc1` [DGJ-pMe SPhT], the IC50 reads like this: (pH 5) 8.3 nM; (pH 7) 1.4 nM.
As to `O[C@@H]1[C@@H](O)CN2/C(=N\c3ccc(F)cc3)SCC2[C@@H]1O` (some centres not stated) [pF PhIM-DGJ], the IC50 by setting is: (pH 5) 9670 nM; (pH 7) 2180 nM.
